Results published in patent US6417141B1, “Substituted aminouracils” (Bayer Aktiengesellschaft, priority 1995, dated 2002).

Key:
Assay type in all cases: in vivo
Details in all cases: greenhouse, 125 g/ha a.i., rated after three weeks vs untreated control
Sinapis [1] = assay: Post-emergence test
Protocol: (§1) Solvent: 5 parts by weight of acetone
(§2) Emulsifier: 1 part by weight of alkylaryl polyglycol ether
(§3) To produce a suitable preparation of active compound, 1 part by weight of active compound is mixed with the stated amount of solvent, the stated amount of emulsifier is added and the concentrate is diluted with water to the desired concentration.
(§4) Test plants which have a height of 5-15 cm are sprayed with the preparation of the active compound in such a way as to apply the particular amounts of active compound desired per unit area.
(§5) After three weeks, the degree of damage to the plants is rated in % damage by comparison with the development of the untreated control.
(§6) 0%=no effect (like untreated control)

Galium [2] = assay: Post-emergence test
Protocol: as §1, §2, §3, §4, §5, §6

Cyperus [3] = assay: Post-emergence test
Protocol: as §1, §2, §3, §4, §5, §6

Amaranthus [4] = assay: Post-emergence test
Protocol: as §1, §2, §3, §4, §5, §6

Alopecurus [5] = assay: Post-emergence test
Protocol: as §1, §2, §3, §4, §5, §6

Avena [6] = assay: Post-emergence test
Protocol: as §1, §2, §3, §4, §5, §6

Setaria [7] = assay: Post-emergence test
Protocol: as §1, §2, §3, §4, §5, §6

Xanthium [8] = assay: Post-emergence test
Protocol: as §1, §2, §3, §4, §5, §6

Abutilon [9] = assay: Post-emergence test
Protocol: as §1, §2, §3, §4, §5, §6

Sinapis [10] = assay: Pre-emergence test
Protocol: as §1, §2
(§7) To produce a suitable preparation of active compound, 1 part by weight of active compound is mixed with a stated amount of solvent, the stated amount of the emulsifier is added and the concentrate is diluted with water to the desired concentration.
(§8) Seeds of the test plants are sown in normal soil. After about 24 hours, the soil is watered with the preparation of the active compound. It is advantageous to keep the amount of water per unit area constant. The concentration of the active compound in the preparation is immaterial, only the amount of active compound applied per unit area matters.
as §5, §6

Galium [11] = assay: Pre-emergence test
Protocol: as §1, §2, §7, §8, §5, §6

Cyperus [12] = assay: Pre-emergence test
Protocol: as §1, §2, §7, §8, §5, §6

Amaranthus [13] = assay: Pre-emergence test
Protocol: as §1, §2, §7, §8, §5, §6

Alopecurus [14] = assay: Pre-emergence test
Protocol: as §1, §2, §7, §8, §5, §6

Avena [15] = assay: Pre-emergence test
Protocol: as §1, §2, §7, §8, §5, §6

Setaria [16] = assay: Pre-emergence test
Protocol: as §1, §2, §7, §8, §5, §6

Xanthium [17] = assay: Pre-emergence test
Protocol: as §1, §2, §7, §8, §5, §6

Abutilon [18] = assay: Pre-emergence test
Protocol: as §1, §2, §7, §8, §5, §6

COc1cc(-n2c(=O)cc(C(F)(F)F)n(N)c2=O)c(F)cc1C#N [Example 1, 1-(4-cyano-2-fluoro-5-methoxy-phenyl)-3,6-dihydro-2,6-dioxo-3-amino-4-trifluoromethyl-1(2H)-pyrimidine]
100%: degree of damage to the plants, Sinapis (Sinapis [1]) | degree of damage to the plants, Galium (Galium [2]) | degree of damage to the plants, Cyperus (Cyperus [3]) | degree of damage to the plants, Amaranthus (Amaranthus [4]) | degree of damage to the plants, Alopecurus (Alopecurus [5]) | degree of damage to the plants, Avena (Avena [6]) | degree of damage to the plants, Setaria (Setaria [7]) | degree of damage to the plants, Xanthium (Xanthium [8]) | degree of damage to the plants, Abutilon (Abutilon [9]) | degree of damage to the plants, Sinapis (Sinapis [10]) | degree of damage to the plants, Galium (Galium [11]) | degree of damage to the plants, Cyperus (Cyperus [12]) | degree of damage to the plants, Amaranthus (Amaranthus [13]) | degree of damage to the plants, Alopecurus (Alopecurus [14]) | degree of damage to the plants, Avena (Avena [15]) | degree of damage to the plants, Setaria (Setaria [16]) | degree of damage to the plants, Xanthium (Xanthium [17]) | degree of damage to the plants, Abutilon (Abutilon [18])
